Experimental data published in ChEMBL document CHEMBL6182851, “Discovery of dual CDK4/6 and BRD4 inhibitor as apoptosis and autophagy inducers against NSCLC in vitro and in vivo” (Eur J Med Chem, 2025).
Calls of active or inactive are those of the source. The calls are words filed in the database; no cut-off is given here.

Experiments:
[1] = Toxicity in mouse assessed as animal mortality at 100 to 400 mg/kg, ip measured for 21 days; format: organism-based; conditions: in vivo, 504 h, dose 100-400 mg/kg, time 21 day
[2] = tested on: NCI-H460; experiment: Antitumor activity against human NCI-H460 cells xenografted in female BALB/c nude mouse at 25 mg/kg, ip administered for 21 consecutive days; format: functional, organism-based; conditions: time 21.0 day
[3] = tested on: NCI-H460; experiment: Induction of autophagy in human NCI-H460 cells assessed as reduction in intracellular AKT protein expression; format: functional, cell-based
[4] = tested on: MCF-10A; experiment: Cytotoxicity against human MCF-10A cells assessed as cell viability at 5 to 10 uM incubated for 48 hrs by MTT assay; format: toxicity, cell-based; conditions: dose 5-10 µM
[5] = tested on: NCI-H460; experiment: Induction of autophagy in human NCI-H460 cells assessed as colocalization of LC3B site with LAMP1 protein incubated for 24 hrs by immunofluorescence analysis; format: functional, cell-based; conditions: dose 2-8 µM
[6] = tested on: NCI-H460; experiment: Induction of apoptosis in human NCI-H460 cells assessed as early apoptotic cells at 8 uM incubated for 48 hrs by Annexin V-PE/7-AAD staining based flow cytometric analysis (reference value: 3.58 %); format: functional
[7] = AUC (0 to t) in male Sprague-Dawley rat at 5 mg/kg, iv measured up to 24 hrs by LC-MS/MS analysis; format: ADME, organism-based; conditions: in vivo
[8] = tested on: NCI-H460; experiment: Induction of autophagy in human NCI-H460 cells assessed as upregulation of beclin 1 level; format: functional, cell-based
[9] = tested on: A549; experiment: cells; conditions: Homo sapiens, A549, 48 h
Description: Antitumor activity against human A549 cells assessed as inhibition of cell viability incubated for 48 hrs by MTT assay

[10] = tested on: NCI-H460; experiment: Cytotoxicity against human NCI-H460 cells measured up to 8 days; format: functional, cell-based; conditions: dose 2-8 µM, time <= 8.0 day
[11] = tested on: NCI-H460; experiment: Antitumor activity against human NCI-H460 cells xenografted in female BALB/c nude mouse assessed as reduction in P-RB expression at 50 mg/kg, ip administered for 21 consecutive days by immunohistochemical analysis; format: functional, organism-based; conditions: time 21.0 day
[12] = Apparent volume of distribution in male Sprague-Dawley rat at 5 mg/kg, iv measured up to 24 hrs by LC-MS/MS analysis; format: ADME, organism-based; conditions: in vivo, read-out: Vz
[13] = tested on: NCI-H460; experiment: Induction of cell cycle arrest in human NCI-H460 cells assessed as accumulation of cells at S phase at 4 uM incubated for 48 hrs by PI staining based flow cytometric analysis (reference value: 33.3 %); format: functional
[14] = tested on: L02; experiment: Cytotoxicity against human LO2 cells measured up to 8 days; format: toxicity, cell-based; conditions: l02, 192 h, time < 8 day
[15] = tested on: NCI-H460; experiment: Induction of autophagy in human NCI-H460 cells assessed as increase in yellow fluorescence incubated for 24 hrs by immunofluorescence analysis; format: functional, cell-based; conditions: dose 2-8 µM
[16] = tested on: NCI-H460; experiment: Antiproliferative activity against human NCI-H460 cells assessed as reduction in EdU positive cells incubated for 24 hrs by EdU incorporation assay; format: functional, cell-based; conditions: dose 2-8 µM
[17] = tested on: NCI-H460; experiment: Induction of autophagy in human NCI-H460 cells assessed as increase in autophagosomes incubated for 48 hrs by MDC staining and LC3B immunofluorescence analysis; format: functional, cell-based; conditions: dose 2-8 µM
[18] = Toxicity in mouse assessed as histological change in heart at 400 mg/kg, ip measured for 21 days by H and E staining based analysis; format: organism-based; conditions: in vivo, 504 h, time 21 day
[19] = tested on: NCI-H460; experiment: Induction of autophagy in human NCI-H460 cells assessed as reduction in intracellular PI3K protein expression; format: functional, cell-based
[20] = Toxicity in mouse assessed as histological change in kidney at 400 mg/kg, ip measured for 21 days by H and E staining based analysis; format: organism-based; conditions: in vivo, 504 h, time 21 day
[21] = Toxicity in mouse assessed as histological change in liver at 400 mg/kg, ip measured for 21 days by H and E staining based analysis; format: organism-based; conditions: in vivo, 504 h, time 21 day
[22] = tested on: NCI-H460; experiment: Induction of apoptosis in human NCI-H460 cells assessed as late apoptotic cells at 4 uM incubated for 48 hrs by Annexin V-PE/7-AAD staining based flow cytometric analysis (reference value: 3.76 %); format: functional
[23] = tested on: NCI-H1299; experiment: cells; conditions: Homo sapiens, NCI-H1299, 48 h
Description: Antitumor activity against human NCI-H1299 cells assessed as inhibition of cell viability incubated for 48 hrs by MTT assay

[24] = tested on: NCI-H460; experiment: Induction of cell cycle arrest in human NCI-H460 cells assessed as accumulation of cells at S phase at 2 uM incubated for 48 hrs by PI staining based flow cytometric analysis (reference value: 33.3 %); format: functional
[25] = tested on: NCI-H460; experiment: Antitumor activity against human NCI-H460 cells xenografted in female BALB/c nude mouse assessed as reduction in c-Myc expression at 50 mg/kg, ip administered for 21 consecutive days by immunohistochemical analysis; format: functional, organism-based; conditions: time 21.0 day
[26] = tested on: NCI-H460; experiment: Induction of autophagy in human NCI-H460 cells assessed as production of autophagic vesicles at 4 uM incubated for 24 hrs by transmission electron microscopic analysis; format: functional, cell-based
[27] = tested on: NCI-H460; experiment: Induction of autophagy in human NCI-H460 cells assessed as production of autophagic lysosomes at 4 uM incubated for 24 hrs by transmission electron microscopic analysis; format: functional, cell-based
[28] = tested on: NCI-H460; experiment: Induction of autophagy in human NCI-H460 cells assessed as suspension of dead cells incubated for 12 hrs by microscopic analysis; format: functional, cell-based
[29] = Clearance in male Sprague-Dawley rat at 5 mg/kg, iv measured up to 24 hrs by LC-MS/MS analysis; format: ADME, organism-based; conditions: in vivo
[30] = tested on: NCI-H460; experiment: Antiproliferative activity against human NCI-H460 cells assessed as decrease in p-Rb expression at 2 to 8 uM treated for 24 hrs by immunofluorescence analysis; format: functional, cell-based; conditions: dose 2-8 µM
[31] = tested on: NCI-H460; experiment: Induction of apoptosis in human NCI-H460 cells assessed as late apoptotic cells at 2 uM incubated for 48 hrs by Annexin V-PE/7-AAD staining based flow cytometric analysis (reference value: 3.76 %); format: functional

COc1cc(-c2nc3ccc(F)cc3c(=O)[nH]2)cc(OC)c1OCC(=O)N1CCN(c2ccc(Nc3ncc4cc(C(=O)N(C)C)n(C5CCCC5)c4n3)nc2)CC1
Activity [1]: Non-toxic
Activity [2]: Active
Activity [3]: Dose-dependent-effect
Activity [4]: Non-toxic
Activity [5]: Dose-dependent-effect
Activity [6]: 16.9%
AUC(0-t) at 24 h [7]: 3780 ng·h/mL
Activity [8]: Active
IC50 [9]: 4.59 µM
Activity [10]: Time-dependent-effect
Activity [11]: Active
Vd [12]: 14.1 L/kg
Activity [13]: 18.8%
Activity [14]: Non-toxic
Activity [15]: Dose-dependent-effect
Activity [16]: Dose-dependent-effect
Activity [17]: Dose-dependent-effect
Activity [18]: Non-toxic
Activity [19]: Dose-dependent-effect
Activity [20]: Non-toxic
Activity [21]: Non-toxic
Activity [22]: 6.56%
IC50 [23]: 4.01 µM
Activity [24]: 27%
Activity [25]: Active
Activity [26]: Active
Activity [27]: Active
Activity [28]: Active; Minor Suspension Was Observed
clearance [29]: 22.3 mL/min/kg
Activity [30]: Active
Activity [31]: 4.55%
